In US20160046610A1, “3-HETEROARYL SUBSTITUTED INDAZOLES” (BAYER PHARMA AKTIENGESELLSCHAFT, priority 2013, published 2016):
Read-outs that look alike come from different tables or passages of the source.

How the values were obtained:
[1] = target: T1, catalytic domain of human Bub1 (amino acids 704-1085) (Homo sapiens, UniProt O43683); assay: Bub1 kinase assay (TR-FRET); format: biochemical
T1 construct: catalytic domain of human Bub1 (amino acids 704-1085); His6 (N); made in house; host or cells: Hi5 insect cells
Description: To this end, 100-fold concentrated compound solutions (in DMSO) were previously prepared by serial dilution (1:3.4) of 2 mM stocks in a clear low volume 384-well source microtiter plate (Greiner Bio-One, Frickenhausen, Germany), from which 50 nl of compounds were transferred into a black low volume test microtiter plate from the same supplier. […] The resulting mixture (5 μL final volume) was incubated at 22° C. during 60 min., and the reaction was stopped by the addition of 5 μL of an aqueous EDTA-solution (50 mM EDTA, in 100 mM HEPES pH 7.5 and 0.2% (w/v) bovine serum albumin) which also contained the TR-FRET detection reagents (0.2 μM streptavidin-XL665 [Cisbio Bioassays, Codolet, France] and 1 nM anti-phosho-Serine antibody [Merck Millipore, cat. #35-001] and 0.4 nM LANCE EU-W1024 labeled anti-mouse IgG antibody [Perkin-Elmer, product no. AD0077, alternatively a Terbium-cryptate-labeled anti-mouse IgG antibody from Cisbio Bioassays can be used]). The stopped reaction mixture was further incubated 1 h at 22° C. in order to allow the formation of complexes between peptides and detection reagents. Subsequently, the amount of product was evaluated by measurement of the resonance energy transfer from the Eu-chelate-antibody complex recognizing the Phosphoserine residue to the streptavidin-XL665 bound to the biotin moiety of the peptide. […] IC50 values were calculated by fitting the normalized inhibition data to a 4-parameter logistic equation (Minimum, Maximum, IC50, Hill; Y=Max+(Min−Max)/(1+(X/IC50)Hill)).

HeLa cell line = assay: Proliferation assay (HeLa cell line), crystal violet staining; format: cell-based; conditions: Homo sapiens, 96 h, read-out: Biological Assay 2: Proliferation assay (HeLa cell line) median IC50
Description: Cultivated tumor cells (cells were ordered from ATCC, except HeLa-MaTu and HeLa-MaTu-ADR, which were ordered from EPO-GmbH, Berlin) were plated at a density of 1000 to 5000 cells/well, depending on the growth rate of the respective cell line, in a 96-well multititer plate in 200 μL of their respective growth medium supplemented 10% fetal calf serum. After 24 hours, the cells of one plate (zero-point plate) were stained with crystal violet (see below), while the medium of the other plates was replaced by fresh culture medium (200 μL), to which the test substances were added in various concentrations (0 μM, as well as in the range of 0.001-10 μM; the final concentration of the solvent dimethyl sulfoxide was 0.5%). The cells were incubated for 4 days in the presence of test substances. Cell proliferation was determined by staining the cells with crystal violet: the cells were fixed by adding 20 μl/measuring point of an 11% glutaric aldehyde solution for 15 minutes at room temperature. After three washing cycles of the fixed cells with water, the plates were dried at room temperature. The cells were stained by adding 100 μl/measuring point of a 0.1% crystal violet solution (pH 3.0). After three washing cycles of the stained cells with water, the plates were dried at room temperature. The dye was dissolved by adding 100 μl/measuring point of a 10% acetic acid solution. Absorption was determined by photometry at a wavelength of 595 nm. The change of cell number, in percent, was calculated by normalization of the measured values to the absorption values of the zero-point plate (=0%) and the absorption of the untreated (0 μm) cells (=100%). The IC50 values were determined by means of a 4 parameter fit using the company's own software.

[2] = TR-FRET, recombinant catalytic domain of human Bub1, ATP 10 μM, peptide substrate 1 μM, median value, read-out: Biological Assay 1: Bub1 kinase assay median IC50

T1 sequence (O43683 704-1085): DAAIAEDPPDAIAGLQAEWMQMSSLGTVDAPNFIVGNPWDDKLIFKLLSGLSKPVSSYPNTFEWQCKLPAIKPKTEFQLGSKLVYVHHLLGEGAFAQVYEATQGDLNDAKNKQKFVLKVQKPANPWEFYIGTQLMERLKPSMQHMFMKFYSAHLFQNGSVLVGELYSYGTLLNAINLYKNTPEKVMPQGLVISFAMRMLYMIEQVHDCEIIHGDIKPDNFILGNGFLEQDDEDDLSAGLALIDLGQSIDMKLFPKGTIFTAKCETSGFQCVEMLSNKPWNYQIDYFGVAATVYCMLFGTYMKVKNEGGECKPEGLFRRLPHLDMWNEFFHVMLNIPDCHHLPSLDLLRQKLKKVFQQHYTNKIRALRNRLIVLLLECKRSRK

Row | Structure (SMILES) | IC50 [1, 2] [nM] | IC50 (HeLa cell line; HeLa) [nM] | IC50 [1] [nM] | IC50 (HeLa cell line; HeLa cells, incubated for 4 days with test substance, crystal violet staining, median value) [nM]
1 | Oc1cnc(-c2nn(Cc3ccccc3F)c3ccccc23)nc1Nc1ccncn1 [Example 2-9-1, 2-[1-(2-fluorobenzyl)-1H-indazol-3-yl]-4-(pyrimidin-4-ylamino)pyrimidin-5-ol] | 13 | > 10000 | – | –
2 | CCOc1cc(F)c(Cn2nc(-c3ncc(OC)c(Nc4ccnnc4)n3)c3ccccc32)c(F)c1 [Example 2-2-1, N-{2-[1-(4-ethoxy-2,6-difluorobenzyl)-1H-indazol-3-yl]-5-methoxypyrimidin-4-yl}pyridazin-4-amine] | 11 | > 10000 | – | –
3 | CCOc1cc(F)c(Cn2nc(-c3ncc(OC)c(Nc4ccccc4)n3)c3ccccc32)c(F)c1 [Example 2-1-1, 2-[1-(4-ethoxy-2,6-difluorobenzyl)-1H-indazol-3-yl]-5-methoxy-N-phenylpyrimidin-4-amine] | 1500 | > 10000 | – | –
4 | Fc1cccc(F)c1Cn1nc(-c2cc(Nc3ccncn3)ccn2)c2ccccc21 [Example 2-6-2, N-{2-[1-(2,6-difluorobenzyl)-1H-indazol-3-yl]pyridin-4-yl}pyrimidin-4-amine] | – | – | 13 | > 10000
5 | CCOc1cc(F)c(Cn2nc(-c3cc(Nc4cn[nH]c4)ccn3)c3ccccc32)c(F)c1 [Example 2-7-1, 2-[1-(4-ethoxy-2,6-difluorobenzyl)-1H-indazol-3-yl]-N-(1H-pyrazol-4-yl)pyridin-4-amine] | 17 | 2400 | – | –
6 | CCOc1cc(F)c(Cn2nc(-c3cc(Nc4ccncn4)ncn3)c3ccccc32)c(F)c1 [Example 2-2-3, 6-[1-(4-ethoxy-2,6-difluorobenzyl)-1H-indazol-3-yl]-N-(pyrimidin-4-yl)pyrimidin-4-amine] | 25 | 5000 | – | –
